Our source for the Ki and inhibition values is patent US20050009840A1 (SUGEN, INC., priority 2003, published 2005).

The target of the first assay is T1, HGFR (Homo sapiens, UniProt P08581).
T1 construct: purchased Upstate 14-526
T1 sequence (P08581 974-1390 limits assumed): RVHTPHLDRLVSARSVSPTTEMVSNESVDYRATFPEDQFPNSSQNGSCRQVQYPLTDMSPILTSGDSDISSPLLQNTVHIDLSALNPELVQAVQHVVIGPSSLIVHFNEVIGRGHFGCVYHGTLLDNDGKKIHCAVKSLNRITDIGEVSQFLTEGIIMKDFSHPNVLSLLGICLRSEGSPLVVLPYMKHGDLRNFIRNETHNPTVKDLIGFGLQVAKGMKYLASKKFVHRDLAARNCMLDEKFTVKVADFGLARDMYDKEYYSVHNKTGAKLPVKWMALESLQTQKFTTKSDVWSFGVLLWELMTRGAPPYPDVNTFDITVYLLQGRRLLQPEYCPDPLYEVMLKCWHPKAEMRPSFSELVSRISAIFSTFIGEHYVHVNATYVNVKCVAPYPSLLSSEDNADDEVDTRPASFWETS
Put plainly: HGFR continuous-coupled spectrophotometric assay. It is filed as biochemical. The following applies: Table 3, column 'Ki (μM) or I (%)': cells without % sign; read-out: Ki.
In general, Ki refers to a measure of affinity in units of concentration, obtained from inhibition or displacement. For the compound `CC(Oc1cc(-c2ccc(CN3C[C@@H](C)O[C@@H](C)C3)cc2)cnc1N)c1c(Cl)ccc(F)c1Cl` (stereo partly drawn) [Example I-571, 3-[1-(2,6-Dichloro-3-fluoro-phenyl)-ethoxy]-5-[4-((2R,6S)-2,6-dimethyl-morpholin-4-ylmethyl)-phenyl]-pyridin-2-ylamine], the Ki is 0.22 µM.

On to `CC(Oc1cc(-c2ccc(OCCN3CCOCC3)nc2)cnc1N)c1c(Cl)ccc(F)c1Cl` (stereo not drawn) [Example I-636, 5-[1-(2,6-Dichloro-3-fluoro-phenyl)-ethoxy]-6′-(2-morpholin-4-yl-ethoxy)-[3,3′]bipyridinyl-6-ylamine], for which the Ki was 0.109 µM.

Staying with this assay, now noted: at 1 pM; Table 6, library procedure 41; read-out: % Inhibition (percent c-MET inhibition).
One may read the inhibition as the change of the read-out against control, counted positive when it falls. Take `CC(C)NC(=O)CN1CCN(C(=O)c2cnc(N)c(OCc3c(Cl)cccc3Cl)c2)CC1` [Example L-201]: the inhibition at 1 pM turned out to be 30%.

As for `COc1cc(CCNC(=O)c2cnc(N)c(OCc3c(Cl)cccc3Cl)c2)cc(OC)c1O` [Example L-247], the inhibition at 1 pM came out at 25%.

For `Nc1ncc(C(=O)NCCc2nc3ccccc3s2)cc1OCc1c(Cl)cccc1Cl` [Example L-291], the inhibition at 1 pM was 26%. On to `Cc1nc(CCNC(=O)c2cnc(N)c(OCc3c(Cl)cccc3Cl)c2)cs1` [Example L-333], for which the inhibition at 1 pM turned out to be 23%. For `Nc1ncc(C(=O)NCC(F)(F)F)cc1OCc1c(Cl)cccc1Cl` [Example L-224], the inhibition at 1 pM turned out to be 30%. As to `Nc1ncc(C(=O)N2CCC3(CC2)CC3C(=O)NCC2CC2)cc1OCc1c(Cl)cccc1Cl` [Example L-349], the inhibition at 1 pM worked out at 32%. The same measure, in the same setting: the value for `CCCC(CO)NC(=O)c1cnc(N)c(OCc2c(Cl)cccc2Cl)c1` [Example L-241] was 30%. For the compound `NC(=O)N1CCN(C(=O)c2cnc(N)c(OCc3c(Cl)cccc3Cl)c2)CC1` [Example L-216], the inhibition at 1 pM is 29%. Same read-out and setting: to `C=C(Cl)/C(=C/O)COc1cc(C(=O)NC2COC3(CCN(Cc4[nH]cnc4C)CC3)C2)cnc1N` [Example L-329] belongs 30%; to `Nc1ncc(C(=O)NC2CCN(Cc3ccccc3)C2)cc1OCc1c(Cl)cccc1Cl` [Example L-184], 27%. `CN(CC#N)C(=O)c1cnc(N)c(OCc2c(Cl)cccc2Cl)c1` [Example L-237]: the inhibition at 1 pM was found to be 30%.

For `CCN(CC)CC1(O)CCN(C(=O)c2cnc(N)c(OCc3c(Cl)cccc3Cl)c2)CC1` [Example L-319], the inhibition at 1 pM came to 71%. Still for that read-out and setting: the value for `Nc1ncc(C(=O)N2CCC(O)(Cc3ccccc3)CC2)cc1OCc1c(Cl)cccc1Cl` [Example L-231] was 62%; that for `Nc1ncc(C(=O)N2CCCC(C(=O)N3CCOCC3)C2)cc1OCc1c(Cl)cccc1Cl` [Example L-287] was 21%.

The same assay, now with this note: at 1 pM; Table 7, library procedure 42; read-out: % Inhibition (percent c-MET inhibition).
As for `Nc1nc(COc2cc(-c3ccc(C(=O)N4CCC(N5CCCC5)CC4)cc3)cnc2N)nc(Nc2ccccc2)n1`, the inhibition at 1 pM amounted to 9%.

Regarding `Nc1ncc(-c2ccc(C(=O)N3CCC(N4CCCC4)CC3)cc2)cc1OCc1cccc(C(=O)NC2CCN(Cc3ccccc3)CC2)c1`, the inhibition at 1 pM turned out to be 13%.

Take `Nc1ncc(-c2ccc(C(=O)N3CCC(N4CCCC4)CC3)cc2)cc1OCc1nc2ncccc2o1`: the inhibition at 1 pM was 17%. Still for that read-out and setting: to `Nc1ncc(-c2ccc(C(=O)N3CCC(N4CCCC4)CC3)cc2)cc1OCc1cc(F)ccc1C(F)(F)F` belongs 26%. As to `Nc1ncc(-c2ccc(C(=O)N3CCC(N4CCCC4)CC3)cc2)cc1OCc1nnnn1Cc1ccccc1`, the inhibition at 1 pM was 19%. Take `Nc1ncc(-c2ccc(C(=O)N3CCC(N4CCCC4)CC3)cc2)cc1OCc1ccc2ccc(Cl)cc2n1`: the inhibition at 1 pM was 24%. With `Nc1ncc(-c2ccc(C(=O)N3CCC(N4CCCC4)CC3)cc2)cc1OCc1csc2ccc(Cl)cc12`, the inhibition at 1 pM is 37%.

Take `Nc1ncc(-c2ccc(C(=O)N3CCC(N4CCCC4)CC3)cc2)cc1OCc1ccccc1CS(=O)(=O)c1ccccc1`: the inhibition at 1 pM came to 11%. With `Cc1nc2scc(COc3cc(-c4ccc(C(=O)N5CCC(N6CCCC6)CC5)cc4)cnc3N)c2c(=O)[nH]1`, the inhibition at 1 pM stood at 10%. On to `Nc1ncc(-c2ccc(C(=O)N3CCC(N4CCCC4)CC3)cc2)cc1OCc1cc(Br)cc(Br)c1`, for which the inhibition at 1 pM is 45%.

Consider `Nc1ncc(-c2ccc(C(=O)N3CCC(N4CCCC4)CC3)cc2)cc1OCc1ccc(C(=O)c2ccccc2)cc1`, for which the inhibition at 1 pM is 31%. Still for that read-out and setting: to `Nc1ncc(-c2ccc(C(=O)N3CCC(N4CCCC4)CC3)cc2)cc1OCc1cccc(Cl)c1F` belongs 28%.

The assay is the same for the next values; noted with them: at 50 nM; Table 5, library procedure 40; read-out: % inhibition (percent c-MET inhibition).
On to `CC(Oc1cc(-c2ccc(C(=O)NCC(C)(C)CN(C)C)cc2)cnc1N)c1c(Cl)ccc(F)c1Cl` [Example L-25], for which the inhibition at 0.05 µM came to 77%.

With `CC(Oc1cc(-c2ccc(C(=O)N3CCN(CCCO)CC3)cc2)cnc1N)c1c(Cl)ccc(F)c1Cl` [Example L-49], the inhibition at 0.05 µM turned out to be 74%. With `CC(Oc1cc(-c2ccc(C(=O)NCCCN(C)C3CCCCC3)cc2)cnc1N)c1c(Cl)ccc(F)c1Cl` [Example L-170], the inhibition at 0.05 µM amounted to 77%. In the case of `CC(C)[C@@H](CO)NC(=O)c1ccc(-c2cnc(N)c(O[C@@H](C)c3c(Cl)ccc(F)c3Cl)c2)cc1` [Example L-82], the inhibition at 0.05 µM turned out to be 74%. For `C[C@H](Oc1cc(-c2ccc(C(=O)NC[C@H]3CCCO3)cc2)cnc1N)c1c(Cl)ccc(F)c1Cl` [Example L-97], the inhibition at 0.05 µM stood at 60%.

Take `CCN(CCN(C)C)C(=O)c1ccc(-c2cnc(N)c(OC(C)c3c(Cl)ccc(F)c3Cl)c2)cc1` [Example L-118]: the inhibition at 0.05 µM was determined as 86%.

With `CC(Oc1cc(-c2ccc(C(=O)N3CCN(Cc4ccccc4)CC3)cc2)cnc1N)c1c(Cl)ccc(F)c1Cl` [Example L-36], the inhibition at 0.05 µM was found to be 62%.

Consider `C[C@H](Oc1cc(-c2ccc(C(=O)N[C@H]3CC[C@H](CO)CC3)cc2)cnc1N)c1c(Cl)ccc(F)c1Cl` [Example L-174], for which the inhibition at 0.05 µM was 68%. For `CC(Oc1cc(-c2ccc(C(=O)NC3CCC3)cc2)cnc1N)c1c(Cl)ccc(F)c1Cl` [Example L-70], the inhibition at 0.05 µM was found to be 71%.

Staying with this assay, now noted: at 1 μM; Table 8, library procedure 43; read-out: % Inhibition (percent c-MET inhibition).
For the compound `CC1CN(C(=O)c2ccc(-c3cnc(N)c(OCc4cccc(Cl)c4Cl)c3)cc2)CC(C)N1` (stereo not drawn), the inhibition at 1 µM amounted to 40%. For `CC1CN(C(=O)c2ccc(-c3cnc(N)c(OCc4cc(Cl)ccc4Cl)c3)cc2)CC(C)N1` (stereo not drawn), the inhibition at 1 µM amounted to 32%. `CC1CN(C(=O)c2ccc(-c3cnc(N)c(OCc4cc(-c5ccccc5)no4)c3)cc2)CC(C)N1` (stereo not drawn): the inhibition at 1 µM was 16%. With `CC1CN(C(=O)c2ccc(-c3cnc(N)c(OCc4ccc(C(F)(F)F)c(F)c4)c3)cc2)CC(C)N1` (stereo not drawn), the inhibition at 1 µM is 17%. The same measure, in the same setting: to `CC1CN(C(=O)c2ccc(-c3cnc(N)c(OCc4nc5ccc(Cl)cc5[nH]4)c3)cc2)CC(C)N1` (stereo not drawn) belongs 10%; to `CC1CN(C(=O)c2ccc(-c3cnc(N)c(OCc4ccc(S(=O)(=O)c5ccc(F)cc5)cc4)c3)cc2)CC(C)N1` (stereo not drawn), 13%.

The assay is the same for the next values; noted with them: cells prefixed Ki; read-out: Met Ki.
Turning to `CC(Oc1cc(-c2ccc(OCCN3CCCC3)cc2)cnc1N)c1cccc(F)c1Cl` (stereo not drawn) [Example I-487, 3-[1-(2-Chloro-3-fluoro-phenyl)-ethoxy]-5-[4-(2-pyrrolidin-1-yl-ethoxy)-phenyl]-pyridin-2-ylamine], the Ki worked out at 3.3 µM. For the compound `CC(Oc1cc(C#CC(C)(C)NC(=O)NCCN2CCCC2)cnc1N)c1c(Cl)ccc(F)c1Cl` (stereo not drawn) [Example I-437, 1-(3-{6-Amino-5-[1-(2,6-dicloro-3-fluoro-phenyl)-ethoxy]-pyridin-3-yl}-1,1-dimethyl-prop-2-ynyl)-3-(2-pyrrolidin-1-yl-ethyl)-urea], the Ki is 0.61 µM.
